Results on 5 compounds are retold here after ChEMBL document CHEMBL3045645, “Organophosphorus derivatives containing isatin-3-hydrazones as chemotherapeutants against fungal pathogens of sugarcane” (2008).

≈ marks a conversion by molar mass, not a printed value.

Assay type in all cases: functional
Test [1] has as its system Curvularia pallescens. Put plainly: Antifungal activity against Cochliobolus pallescens assessed as mycelial growth inhibition at 1000 ppm at 28 +/-2 degC after 7 days by food poison technique. The note with it: 168 h, read-out: GI.
The subject of test [2] is Curvularia pallescens. The experiment in a line: Antifungal activity against Cochliobolus pallescens assessed as mycelial growth inhibition at 10 ppm at 28 +/-2 degC after 7 days by food poison technique. The note with it: 168 h, read-out: GI.
The subject of test [3] is Fusarium oxysporum. Put plainly: Antifungal activity against Fusarium oxysporum assessed as mycelial growth inhibition at 1000 ppm at 28 +/-2 degC after 7 days by food poison technique. The note with it: 168 h, read-out: GI.
In test [4] the test system is Fusarium oxysporum. The experiment in a line: Antifungal activity against Fusarium oxysporum assessed as mycelial growth inhibition at 10 ppm at 28 +/-2 degC after 7 days by food poison technique. The note with it: 168 h, read-out: GI.
Test [5] concerns Colletotrichum falcatum. Put plainly: Antifungal activity against Glomerella tucumanensis assessed as mycelial growth inhibition at 100 ppm at 28 +/-2 degC after 7 days by food poison technique. The note with it: 168 h, read-out: GI.
Test [6] concerns Fusarium oxysporum. Put plainly: Antifungal activity against Fusarium oxysporum assessed as mycelial growth inhibition at 100 ppm at 28 +/-2 degC after 7 days by food poison technique. The note with it: 168 h, read-out: GI.
For test [7], the system named is Colletotrichum falcatum. The experiment in a line: Antifungal activity against Glomerella tucumanensis assessed as mycelial growth inhibition at 1000 ppm at 28 +/-2 degC after 7 days by food poison technique. The note with it: 168 h, read-out: GI.
Test [8] has as its system Colletotrichum falcatum. Put plainly: Antifungal activity against Glomerella tucumanensis assessed as mycelial growth inhibition at 10 ppm at 28 +/-2 degC after 7 days by food poison technique. The note with it: 168 h, read-out: GI.
The subject of test [9] is Curvularia pallescens. The experiment in a line: Antifungal activity against Cochliobolus pallescens assessed as mycelial growth inhibition at 100 ppm at 28 +/-2 degC after 7 days by food poison technique. The note with it: 168 h, read-out: GI.
In test [10] the test system is Curvularia pallescens. The experiment in a line: Antifungal activity against Cochliobolus pallescens assessed as mycelial growth inhibition at 28 +/-2 degC after 7 days by food poison technique. The note with it: 168 h.
Test [11] relates to Curvularia pallescens. Put plainly: Ratio of copper oxychloride MIC to compound MIC for Cochliobolus pallescens after 7 days by food poison technique.
The subject of test [12] is Curvularia pallescens. Put plainly: Ratio of carbendazim MIC to compound MIC for Cochliobolus pallescens after 7 days by food poison technique.
In test [13] the test system is Colletotrichum falcatum. The experiment in a line: Antifungal activity against Glomerella tucumanensis assessed as mycelial growth inhibition at 28 +/-2 degC after 7 days by food poison technique. The note with it: 168 h.
Test [14] deals with Fusarium oxysporum. Put plainly: Antifungal activity against Fusarium oxysporum assessed as mycelial growth inhibition at 28 +/-2 degC after 7 days by food poison technique. The note with it: 168 h.
The test system of test [15] is Colletotrichum falcatum. Put plainly: Ratio of carbendazim MIC to compound MIC for Glomerella tucumanensis after 7 days by food poison technique.
Test [16] deals with Colletotrichum falcatum. The experiment in a line: Ratio of copper oxychloride MIC to compound MIC for Glomerella tucumanensis after 7 days by food poison technique.
For test [17], the system named is Fusarium oxysporum. The experiment in a line: Ratio of thiophanate MIC to compound MIC for Fusarium oxysporum after 7 days by food poison technique.
Test [18] concerns Colletotrichum falcatum. Put plainly: Ratio of thiophanate MIC to compound MIC for Glomerella tucumanensis after 7 days by food poison technique.
The subject of test [19] is Fusarium oxysporum. The experiment in a line: Ratio of carbendazim MIC to compound MIC for Fusarium oxysporum after 7 days by food poison technique.
Test [20] deals with Curvularia pallescens. Put plainly: Ratio of mancozeb MIC to compound MIC for Cochliobolus pallescens after 7 days by food poison technique.
Test [21] relates to Colletotrichum falcatum. The experiment in a line: Ratio of mancozeb MIC to compound MIC for Glomerella tucumanensis after 7 days by food poison technique.
Test [22] deals with Curvularia pallescens. Put plainly: Ratio of thiophanate MIC to compound MIC for Cochliobolus pallescens after 7 days by food poison technique.
The test system of test [23] is Fusarium oxysporum. Put plainly: Ratio of copper oxychloride MIC to compound MIC for Fusarium oxysporum after 7 days by food poison technique.
Test [24] relates to Fusarium oxysporum. Put plainly: Ratio of mancozeb MIC to compound MIC for Fusarium oxysporum after 7 days by food poison technique.

For `CCOP(=O)(OCC)O/C(=N\N=C1/C(=O)Nc2ccccc21)c1ccccc1`, the results for the inhibition of growth at 1000 ppm in [1], in [3] and in test [7] were 59.8%, 61.8% and 60.8%, respectively. Moreover, the inhibition of growth at 10 ppm in test [2] was 40.4%; in test [4], 41.2%; in [8], 40.3%. Moreover, the inhibition of growth at 100 ppm came to 49.4% in test [5], 50.4% in [6] and 49.2% in test [9].
In the case of `CCOP(=S)(OCC)O/C(COc1ccc(Cl)cc1)=N\N=C1/C(=O)Nc2ccccc21`, the inhibition of growth at 1000 ppm in test [1], in [3] and in test [7] was 100% each time. Further, the MIC in test [10], in test [13] and in test [14] was 1000 mg/L (≈ 2.08 mM) throughout. Also, the inhibition of growth at 10 ppm in test [2] is 78.2%; in test [4] it was 80%; in test [8], 80.5%. The Ratio in [11], in [12], in test [15], in test [16], in [17] and in test [18] was 2 in each case. Moreover, the Ratio in [19], in [20], in test [21], in test [22], in [23] and in [24] was 2 in each case. The inhibition of growth at 100 ppm amounted to 90.2% in [5], 89.2% in test [6] and 84.8% in test [9].
For `CCOP(=S)(OCC)O/C(COc1ccc(OP(=S)(OCC)OCC)cc1)=N\N=C1/C(=O)Nc2ccccc21`, the inhibition of growth at 1000 ppm in [1], in test [3] and in test [7] was 100% throughout. In addition, the minimal inhibitory concentration (MIC) in test [10], in test [13] and in test [14] was 1000 mg/L (≈ 1.62 mM) each time. Besides, the inhibition of growth at 10 ppm was 68.6% in test [2], 70.2% in test [4] and 75.1% in test [8]. In addition, the Ratio in [11], in [12], in test [15], in test [16], in [17] and in test [18] was 2 throughout. For the same compound, the Ratio in [19], in [20], in [21], in test [22], in test [23] and in test [24] was 2 throughout. For the same compound, the figures for the inhibition of growth at 100 ppm in test [5], in test [6] and in [9] were 86.2%, 82.6% and 80.5%, respectively.
For the compound `COC(=O)Nc1nc2ccccc2[nH]1` [CARBENDAZIM], the MIC in [10] was determined as 4000 mg/L (≈ 20.9 mM); in test [13], 4000 mg/L (≈ 20.9 mM); in [14], 3000 mg/L (≈ 15.7 mM).
Turning to `COC(=O)NC(=S)Nc1ccccc1NC(=S)NC(=O)OC` [THIOPHANATE METHYL], the MIC in test [10], in [13] and in [14] was 4000 mg/L (≈ 11.7 mM) throughout.

A word on the MIC: it is the least concentration at which growth counts as inhibited.
